In paper PMC6222424, “Hits-to-Lead Optimization of the Natural Compound 2,4,6-Trihydroxy-3-geranyl-acetophenone (tHGA) as a Potent LOX Inhibitor: Synthesis, Structure-Activity Relationship (SAR) Study, and Computational Assignment” (Molecules : A Journal of Synthetic Chemistry and Natural …, 2018):
Read-outs that look alike come from different tables or passages of the source.

Columns and labels:
[1] = biological target: T1, soybean LOX-1 (Glycine max, UniProt P08170); test: In vitro soybean 15-lipoxygenase (LOX) inhibition assay; details: for inhibition at 100 µg/mL: read-out: % Inhibition (100 μg/mL); for solubility of the compound in the 15-LOX assay: assay could not be carried out
T1 sequence (P08170 1-839): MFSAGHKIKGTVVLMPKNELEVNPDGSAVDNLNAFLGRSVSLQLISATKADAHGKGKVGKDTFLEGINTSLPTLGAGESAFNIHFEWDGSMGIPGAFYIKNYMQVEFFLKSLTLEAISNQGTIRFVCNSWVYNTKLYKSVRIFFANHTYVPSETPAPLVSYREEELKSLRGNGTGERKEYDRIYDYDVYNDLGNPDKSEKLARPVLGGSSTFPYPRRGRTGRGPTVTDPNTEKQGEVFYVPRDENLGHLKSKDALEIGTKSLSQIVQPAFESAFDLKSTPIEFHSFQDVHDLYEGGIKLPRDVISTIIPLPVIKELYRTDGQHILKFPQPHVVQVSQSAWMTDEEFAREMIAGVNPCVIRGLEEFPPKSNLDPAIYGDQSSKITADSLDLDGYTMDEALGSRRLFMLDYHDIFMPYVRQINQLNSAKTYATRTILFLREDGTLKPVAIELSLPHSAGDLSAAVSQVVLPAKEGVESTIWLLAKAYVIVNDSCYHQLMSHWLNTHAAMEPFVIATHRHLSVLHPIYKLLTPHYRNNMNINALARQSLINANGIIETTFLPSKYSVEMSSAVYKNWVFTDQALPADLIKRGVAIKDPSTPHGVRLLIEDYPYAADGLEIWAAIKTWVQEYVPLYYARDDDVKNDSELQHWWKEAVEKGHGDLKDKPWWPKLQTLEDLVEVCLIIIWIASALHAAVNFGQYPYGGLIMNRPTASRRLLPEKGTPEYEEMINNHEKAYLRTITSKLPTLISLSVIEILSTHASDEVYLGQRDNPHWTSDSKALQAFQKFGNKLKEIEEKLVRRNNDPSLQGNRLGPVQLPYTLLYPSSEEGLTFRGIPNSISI
Procedure: Briefly, sodium phosphate buffer (160 μL, 100 mM, pH 8.0), test sample (10 μL), and soybean 15-LOX (1.13.11.12) type I-B solution (20 μL, 320 U/well) were mixed and incubated at room temperature for 15 min. The substrate linoleic acid (10 μL, 0.6 mM) solution was added to initiate the reaction. End product from the enzymatic conversion was measured at absorbance of 234 nm over a period of 6 min and the assay was performed in triplicate. Dimethyl sulfoxide (DMSO) was used as a solvent to dissolve test samples and reference standard. […] IC50 values were calculated by the nonlinear regression fitting curve of GraphPad Prism 5. The percentage of inhibition can be calculated by the following formula [10, 11]: Inhibitory% = ODcontrol−ODsample/ODcontrol

[2] = biological target: T1, soybean LOX-1; design: purchased; method as in PMID 25100256; details: data published in previous work, read-out: IC50 Value (μM) Mean ± SEM, cited from earlier work
[3] = biological target: T1, soybean LOX-1; test: Enzyme kinetics study (Michaelis–Menten, Lineweaver–Burk); assay type: biochemical; design: purchased; details: for type of inhibition: Lineweaver–Burk plot; for Ki: from slope of Lineweaver–Burk plot vs inhibitor concentration, read-out: Ki (inhibitor constant)
Procedure: Since compounds 3e and tHGA (3a) are competitive inhibitors, there were no changes in maximal velocity.
Kinetics study: Enzyme kinetics was performed similar to the above inhibition assay with slight modification. […] About 10 μL each of 4 linoleic acid substrate concentrations (0.2, 0.3, 0.4, and 0.5 mM) was added to initiate the enzymatic conversion. End product of the reaction was measured at 234 nm over a period of 10 min, with readings taken every 30 s. The type of inhibition (competitive, uncompetitive, noncompetitive) was determined by nonlinear regression Michaelis–Menten enzyme kinetics and the corresponding Lineweaver–Burk plots using 3 concentrations of each inhibitor: 0, 1.57, and 3.13 μg/mL. All experiments were performed in triplicate and the average values and standard errors were plotted. The Km and Vmax values were calculated from the nonlinear regression fitting curve of GraphPad Prism 5.

[4] = tested on: allergic airway inflammation; design: method as in PMID 22266348; details: acute murine model; compared with Zileuton; cited from earlier work

Structure (SMILES) | IC50 [1] [µM] | inhibition at 100 µg/mL [1] [%] | melting point [°C] | also measured
CC(C)=CCc1c(O)cc(O)c(C(=O)C2CCCCC2)c1O [Compound 4f, Cyclohexyl(2,4,6-trihydroxy-3-(3-methylbut-2-enyl)phenyl)methanone] | 52.6 ± 1 | 93.7 ± 3.8 |  | 
CC(C)=CCC/C(C)=C/Cc1c(O)cc(O)c(C(=O)C2CCCCC2)c1O [Compound 3f] |  |  |  | IC50 [2]: 26.3 ± 1.3 µM
CCCCC(=O)c1c(O)cc(O)c(CC=C(C)C)c1O [Compound 4e, 1-(2,4,6-trihydroxy-3-(3-methylbut-2-enyl)phenyl)pentan-1-one] | 35.1 ± 1.3 | 79.4 ± 6.7 | 133 to 135 | 
CCCC(=O)c1c(O)cc(O)c(CC=C(C)C)c1O [Compound 4d, 1-(2,4,6-trihydroxy-3-(3-methylbut-2-enyl)phenyl)butan-1-one] | 39.5 ± 1.2 | 86.2 ± 6.9 |  | 
CC(C)=CCC/C(C)=C/Cc1c(O)cc(O)c(C(=O)C(C)C)c1O [Compound 3b] |  |  |  | IC50 [2]: 27.6 ± 3.6 µM
COc1cc(OC)c(C(C)=O)c(O)c1C/C=C(\C)CCC=C(C)C [Compound 5a, (E)-1-(3-(3,7-dimethylocta-2,6-dienyl)-2-hydroxy-4,6-dimethoxyphenyl)ethanone] |  |  | 72 to 74 | solubility of the compound in the 15-LOX assay [1]: insolubility
CCCCC(=O)c1c(OC)cc(OC)c(C/C=C(\C)CCC=C(C)C)c1O [Compound 5e, (E)-1-(3-(3,7-dimethylocta-2,6-dienyl)-2-hydroxy-4,6-dimethoxyphenyl)pentan-1-one] |  |  |  | solubility of the compound in the 15-LOX assay [1]: insolubility
COc1cc(OC)c(C(C)=O)c(O)c1CC=C(C)C [Compound 6a, 1-(2-hydroxy-4,6-dimethoxy-3-(3-methylbut-2-enyl)phenyl)ethanone] |  |  | 97 to 99 | solubility of the compound in the 15-LOX assay [1]: insolubility
CC(C)=CCc1c(O)cc(O)c(C(=O)/C=C/c2ccccc2)c1O [Compound 4g, (E)-3-phenyl-1-(2,4,6-trihydroxy-3-(3-methylbut-2-enyl)phenyl)prop-2-en-1-one] | 95.4 ± 4 | 95.2 ± 3.2 | 203 to 205 | 
CC(C)=CCc1c(O)cc(O)c(C(=O)C(C)C)c1O [Compound 4b, 2-methyl-1-(2,4,6-trihydroxy-3-(3-methylbut-2 enyl)phenyl)propan-1-one] | 53.7 ± 0.7 | 82.5 ± 7.3 |  | 
CCCCC(=O)c1c(OC)cc(OC)c(CC=C(C)C)c1O [Compound 6e, 1-(2-hydroxy-4,6-dimethoxy-3-(3-methylbut-2-enyl)phenyl)pentan-1-one] |  |  | 84 to 86 | solubility of the compound in the 15-LOX assay [1]: insolubility
CC(=O)c1c(O)cc(O)c(C/C=C(\C)CCC=C(C)C)c1O [Compound 3a, 2,4,6-Trihydroxy-3-geranylacetophenone] |  |  |  | type of inhibition [3]: competitive; Ki [3]: 41.1 µM; prevention of allergic airway inflammation [4]: as effective as Zileuton; IC50 ([2]; listed as 3a (tHGA)): 23.6 ± 1.7 µM
CCCC(=O)c1c(O)cc(O)c(C/C=C(\C)CCC=C(C)C)c1O [Compound 3d, (E)-1-(3-(3,7-dimethylocta-2,6-dienyl)-2,4,6-trihydroxyphenyl)butan-1-one] | 15.3 ± 0.5 | 90.7 ± 5 | 116 to 118 | 
CCCCC(=O)c1c(O)cc(O)c(C/C=C(\C)CCC=C(C)C)c1O [Compound 3e, (E)-1-(3-(3,7-dimethylocta-2,6-dienyl)-2,4,6-trihydroxyphenyl)pentan-1-one] |  |  |  | type of inhibition [3]: competitive; Ki [3]: 36.1 µM; fold less active than the standard drug NDGA ([1]; IC50 compared with NDGA): 100 fold; IC50 [2]: 10.3 µM
CCC(=O)c1c(O)cc(O)c(C/C=C(\C)CCC=C(C)C)c1O [Compound 3c, (E)-1-(3-(3,7-dimethylocta-2,6-dienyl)-2,4,6-trihydroxyphenyl)propan-1-one] |  |  |  | IC50 [2]: 12.3 ± 0.6 µM
CC(=O)c1c(O)cc(O)c(CC=C(C)C)c1O [Compound 4a, 1-(2,4,6-trihydroxy-3-(3-methylbut-2-enyl)phenyl)ethanone] | 72.1 ± 1.2 | 94.8 ± 5.2 |  | 
CCC(=O)c1c(O)cc(O)c(CC=C(C)C)c1O [Compound 4c, 1-(2,4,6-trihydroxy-3-(3-methylbut-2-enyl)phenyl)propan-1-one] | 61 ± 1.1 | 78.1 ± 3.9 | 138 to 140 | 
